Measurements published in US20030203969A1, “Pharmaceutically active aromatic guanylhydrazones” (priority 2000, published 2003).

Test system: HepG2-2.2.15 cells
Assay: Cell viability of HepG2-2.2.15 cells (dye uptake)
Type: cell-based, human
Settings: inhibits cell growth by 50%, read-out: TC50 (the source's name)
Procedure: Human HepG2-2.2.15 cells (ATCC Cat. No. CRL-11997), chronically infected with HBV, are plated in 96-well microtiter plates in DMEM medium supplemented with fetal bovine serum. After incubation at 37° C. in a humidified, 5% CO2 environment for 16-24 hours, the monolayer of HepG2-2.2.15 cells is washed and the medium is replaced with complete medium containing various concentrations of test compound. Every three days during the experiments, the culture medium is replaced with fresh medium containing the appropriately diluted test compound. Six days following the initial administration of the test compound, the cell culture supernatant is collected and clarified by centrifugation. The cell viability is evaluated by a dye uptake procedure (Promega's Cell Titer Aqueous One Solution). Virion-associated HBV DNA present in the tissue culture supernatant is amplified employing PCR technology using primer pairs derived from the HBV strain ayw. Subsequently, the PCR-amplified HBV DNA is detected in real-time by monitoring increases in fluorescence signals that result from exonucleolytic degradation of a quenched fluorescent probe molecule following hybridization of the probe to the amplified HBV DNA (TaqMan; Perkin-Elmer).

Structure (SMILES): CC(=NNC(=N)N)c1cc(NC(=O)CCCCCCCCC(=O)Nc2cc(C(C)=NNC(=N)N)cc(C(C)=NNC(=N)N)c2)cc(C(C)=NNC(=N)N)c1 [Compound 4, N,N′-bis (3,5-diacetylphenyl) decane diamide tetrakis (amidinohydrazone)]
- CC50: > 20 µM
